The values that follow come from patent publication US20130053243A1, “PLANTS HAVING INCREASED TOLERANCE TO HERBICIDES” (BASF SE, priority 2010, published 2013).

The target in experiment [1] is T1, Arabidopsis HPPD variant I393L (Arabidopsis thaliana, UniProt P93836, I393L).
T1 construct: His6 (N); made in house; host or cells: E. coli BL21 (DE3)
Briefly: HPPD activity assay, mutant enzyme. The class given is biochemical.

Experiment [2] concerns the target T2, Arabidopsis HPPD variant L385V (Arabidopsis thaliana, UniProt P93836, L385V).
T2 construct: His6 (N); made in house; host or cells: E. coli BL21 (DE3)
Briefly: HPPD activity assay, mutant enzyme. It counts as biochemical.

The target in experiment [3] is T3, Arabidopsis HPPD variant M335N (Arabidopsis thaliana, UniProt P93836, M335N).
T3 construct: His6 (N); made in house; host or cells: E. coli BL21 (DE3)
T3 sequence (P93836 whole entry M335N): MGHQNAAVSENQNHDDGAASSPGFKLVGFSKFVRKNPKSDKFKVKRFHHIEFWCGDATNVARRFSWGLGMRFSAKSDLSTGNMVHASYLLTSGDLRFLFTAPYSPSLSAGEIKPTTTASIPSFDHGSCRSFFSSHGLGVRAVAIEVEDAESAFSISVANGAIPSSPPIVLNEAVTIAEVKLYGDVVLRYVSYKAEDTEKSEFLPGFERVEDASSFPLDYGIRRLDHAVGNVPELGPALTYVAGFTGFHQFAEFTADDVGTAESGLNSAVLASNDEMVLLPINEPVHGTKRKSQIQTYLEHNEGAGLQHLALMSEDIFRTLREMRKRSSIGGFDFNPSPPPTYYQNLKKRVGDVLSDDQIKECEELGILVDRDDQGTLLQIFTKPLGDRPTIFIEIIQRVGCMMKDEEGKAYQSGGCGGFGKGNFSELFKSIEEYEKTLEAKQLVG
Briefly: HPPD activity assay, mutant enzyme. It counts as biochemical.

The target of experiment [4] is T4, Arabidopsis HPPD variant M335Q (Arabidopsis thaliana, UniProt P93836, M335Q).
T4 construct: His6 (N); made in house; host or cells: E. coli BL21 (DE3)
T4 sequence (P93836 whole entry M335Q): as the sequence (P93836 whole entry M335N) above, with N335Q counted along it
The experiment in a line: HPPD activity assay, mutant enzyme. It counts as biochemical.

The target of experiment [5] is T5, Arabidopsis HPPD variant P336A E363Q (Arabidopsis thaliana, UniProt P93836, E363Q/P336A).
T5 construct: His6 (N); made in house; host or cells: E. coli BL21 (DE3)
T5 sequence (P93836 whole entry P336A/E363Q): as the sequence (P93836 whole entry M335N) above, with N335M, P336A, E363Q counted along it
The experiment in a line: HPPD activity assay, mutant enzyme. It counts as biochemical.

Experiment [6] has as its system Chlamydomonas strain CMr15. Briefly: Growth inhibition of Chlamydomonas strains (tolerance). It counts as cell-based, Chlamydomonas reinhardtii. Particulars: read-out: IC50 of growth inhibition. On the procedure: (§1) Algae cells of Chlamydomonas reinhardtii strains CC-503 and CC-1691 (Duke University, Durham, USA) are propagated in TAP medium (Gorman and Levine (1965) PNAS 54: 1665-1669) by constant shaking at 100 rpm, 22° C. and 30 μmol Phot*m^−2*[…] light illumination. Scenedesmus obliquus (University of Gottingen, Germany) are propagated in algae medium as described (Boger and Sandmann, (1993) In: Target assays for modern herbicides and related phytotoxic compounds, Lewis Publishers) under same culturing conditions as mentioned for Chlamydomonas. Compound screening is performed at 450 μmol Phot*m^−2*[…] illumination.
Sensitive strains of Chlamydomonas reinhardtii or Scenedesmus obliquus (Tables 14, 15) are mutated with 0.14 […] (EMS) for 1 h as described by Loppes (1969, Mol Gen Genet. 104: 172-177) Tolerant strains are identified by screening of mutagenized cells on solid nutrient solution plates containing “coumarone-derivative herbicides” or other HPPD inhibiting herbicides at wildype-lethal concentrations. Examples of the data obtained are depicted in Table 16 and FIG. 2.

A further experiment concerns C. reinhardtii (CC-503). The experiment in a line: C. reinhardtii growth inhibition by HPPD inhibiting herbicides. It counts as cell-based, Chlamydomonas reinhardtii.
Description: Bleaching herbicides with a mode of action in plastoquinone or tocopherol biosynthesis can inhibit algae growth (Tables 14 and 15). These effects can be partly reversed by intermediates of homogentisic acid biosynthesis (Table 14). To generate mutations conferring “coumarone-derivative herbicide” resistance in HPPD or HST genes, chemical or UV mutagenesis can be used. Especially unicellular organisms like Chlamydomonas reinhardtii or Scenedesmus obliquus are useful for identifying dominant mutations in herbicide resistance.
as §1

pIC50, pKi: −log10 of the molar value.

T2 sequence (P93836 whole entry L385V): as the sequence (P93836 whole entry M335N) above, with N335M, L385V counted along it
T1 sequence (P93836 whole entry I393L): as the sequence (P93836 whole entry M335N) above, with N335M, I393L counted along it

In the case of `CC1=NOC(c2c(Cl)ccc(C3=C(O)c4ncccc4N(CC(F)F)S3(=O)=O)c2Cl)C1` (centres unmarked) [Inhibitor 1, 3-[2,4-dichloro-3-(3-methyl-4,5-dihydroisoxazol-5-yl)phenyl]-1-(2,2-difluoroethyl)-2,2-dioxo-pyrido[3,2-c]thiazin-4-ol], the negative logarithm of the Ki (pKi) in experiment [1] is 7.68; in experiment [2], 7.72; in experiment [3], 7.70; in experiment [4], 7.62; in experiment [5], 7.89. For the same compound, the pIC50 in experiment [6] was below 3.00.

Turning to `Cc1c(C(=O)c2cnn(C)c2O)ccc(S(C)(=O)=O)c1C1=NOCC1` [Topramezone, reference compound], in the experiment on C. reinhardtii (CC-503) (c 1 * 10^−4 M), the “Growth inihibition [%] C. reinhardtii (CC-503)” value was determined as 100% and the “Growth inihibition [%] C. reinhardtii (CC-503) + Homogentisic acid” value came to 80%. Further, in the experiment on C. reinhardtii (CC-503) (c 5 * 10^−4 M), the “Growth inihibition [%] C. reinhardtii (CC-503)” value was 100% and the “Growth inihibition [%] C. reinhardtii (CC-503) + Homogentisic acid” value was determined as 100%. Moreover, the negative logarithm of the IC50 (pIC50) in experiment [6] is 3.64.
